Measured values taken from patent US4302540A, “Process of producing optically active cephalosporin analogs by enzyme selective deacylation” (Kyowa Hakko Kogyo Co., Ltd., priority 1979, dated 1981).
Converted amounts (≈) assume the structure as drawn. Like-named read-outs stand apart in the source and are kept apart here.

Experiments:
Assay in all cases: Antimicrobial activity, Heart Infusion Agar Dilution Method (pH 7.2)
Type in all cases: cell-based
Escherichia coli NIHJC-2 = settings: NIHJC2
Proteus mirabilis 1287 = test system: Proteus mirabilis 1287
Escherichia coli Juhl = test system: Escherichia coli Juhl
[1] = test system: Staphylococcus epidermidis
Text: (§1) Antimicrobial activities of the compound obtained in Reference Example 9 are as follows. Heart Infusion Agar Dilution Method (pH 7.2) is used.

Proteus morganii KY 4298 = test system: Proteus morganii KY 4298
Text: as §1

[2] = test system: Escherichia coli GN2411-5
Text: as §1

Proteus vulgaris 6897 = test system: Proteus vulgaris 6897
Text: as §1

Serratia marcescens T-55 = settings: T55
Text: as §1

[3] = test system: Staphylococcus aureus Smith
Text: as §1

[4] = test system: Pseudomonas aeruginosa 145
Text: as §1

Pseudomonas putida 264 = test system: Pseudomonas putida 264
Text: as §1

Proteus rettgeri KY 4289 = settings: Providencia rettgeri, KY4289
Text: as §1

[5] = test system: Klebsiella pneumoniae Y-60; settings: Y60
[6] = test system: Klebsiella pneumoniae 8045
Serratia marcescens T-26 = test system: Serratia marcescens T-26
[7] = test system: Pseudomonas aeruginosa #1
Text: as §1

[8] = test system: Staphylococcus aureus 209-P
Text: as §1

[9] = Morganella morganii, KY4298, read-out: MIC

SMILES | MIC (Escherichia coli NIHJC-2) [mg/L] | MIC (Proteus mirabilis 1287) [mg/L] | MIC (Escherichia coli Juhl) [mg/L] | MIC ([1]; read-out: MIC) [mg/L] | MIC (Proteus morganii KY 4298; [9]) [mg/L] | MIC [2] [mg/L] | MIC (Proteus vulgaris 6897) [mg/L] | MIC (Serratia marcescens T-55) [mg/L] | MIC [3] [mg/L] | MIC ([4]; read-out: MIC) [mg/L] | MIC (Pseudomonas putida 264; read-out: MIC) [mg/L] | MIC (Proteus rettgeri KY 4289) [mg/L] | MIC [5] [mg/L] | MIC [6] [mg/L] | further results
CO/N=C(\C(=O)N[C@@H]1C(=O)N2C(C(=O)O)=C[C@@H](O)C[C@H]12)c1csc(N)n1 (relative stereo) [B, (±)-cis-7β-[2-(2-amino-4-thiazolyl)-2-syn-methoxyiminoacetamido]-4α-hydroxy-1-azabicyclo[4,2,0]oct-2-en-8-on-2-carboxylic acid] | 0.05 (≈ 0.131 µM) | 0.1 (≈ 0.262 µM) | 0.05 (≈ 0.131 µM) | 50 (≈ 131 µM) | 0.05 (≈ 0.131 µM) | 0.02 (≈ 0.0524 µM) | 0.1 (≈ 0.262 µM) | 0.02 (≈ 0.0524 µM) | 25 (≈ 65.6 µM) | 12.5 (≈ 32.8 µM) | 0.02 (≈ 0.0524 µM) | < 0.01 | 0.02 (≈ 0.0524 µM) | 0.02 (≈ 0.0524 µM) | –
Cc1nnc(SCC2=C(C(=O)O)N3C(=O)[C@@H](NC(=O)Cn4cnnn4)[C@H]3SC2)s1 [Cefazolin, reference compound] | – | 12.5 (≈ 27.5 µM) | – | 0.78 (≈ 1.72 µM) | > 100 | 0.78 (≈ 1.72 µM) | 25 (≈ 55 µM) | > 100 | 0.78 (≈ 1.72 µM) | > 100 | > 100 | 25 (≈ 55 µM) | 3.12 (≈ 6.86 µM) | – | MIC (Serratia marcescens T-26; T26, read-out: MIC): > 100 mg/L; MIC ([7]; read-out: MIC): > 100 mg/L; MIC [8]: 0.02 mg/L (≈ 0.044 µM)
N[C@@H](C(=O)NC1C(=O)N2C(C(=O)O)=CC(O)CC12)c1ccccc1 (stereo in doubt) [C, cis-7β-[(R)-2-phenylglycinamido]-4α-hydroxy-1-azabicyclo[4,2,0]oct-2-en-8-on-2-carboxylic acid] | – | – | – | – | – | – | – | – | – | – | – | – | – | – | MIC (Serratia marcescens T-26): 100 mg/L (≈ 302 µM); MIC [1]: 12.5 mg/L (≈ 37.7 µM); MIC (Proteus morganii KY 4298): 12.5 mg/L (≈ 37.7 µM); MIC [7]: > 100 mg/L; MIC [4]: > 100 mg/L; MIC (Pseudomonas putida 264): 12.5 mg/L (≈ 37.7 µM)
CO/N=C(\C(=O)N[C@@H]1C(=O)N2C(C(=O)O)=C[C@@H](O)C[C@H]12)c1csc(N)n1 [A, (4S,6R,7S)-7-[2-(2-amino-4-thiazolyl)-2-syn-methoxyiminoacetamido]-4-hydroxy-1-azabicyclo[4,2,0]oct-2-en-8-on-2-carboxylic acid] | 0.02 (≈ 0.0524 µM) | 0.05 (≈ 0.131 µM) | ≤ 0.01 | 25 (≈ 65.6 µM) | ≤ 0.01 | ≤ 0.01 | ≤ 0.01 | 0.05 (≈ 0.131 µM) | 12.5 (≈ 32.8 µM) | 6.25 (≈ 16.4 µM) | 0.02 (≈ 0.0524 µM) | ≤ 0.01 | ≤ 0.01 | ≤ 0.01 | –
